Here are results for six molecules from patent US10300049B2, “Myeloid differentiation inducing agents” (CASE WESTERN RESERVE UNIVERSITY, priority 2007, dated 2019).

Test [1] deals with HL-60 subcutaneous tumors. As to the kind of experiment: Established HL-60 subcutaneous tumor xenograft in nude mice. Type of test: in vivo. Particulars: 15 mg/kg twice a day. How it is done:
Nude mice (5 per experimental group) were injected with 5×10^7 HL-60 cells bilaterally into the flank. 9 days after tumor cell inoculation, the indicated drugs were injected I.P. three times a week for 3 weeks. […] Representative picture of the mice at the end of the study period (B). Representative picture of tumors dissected from the indicated mice. (C). Average weights of tumors dissected from all mice (D).
In order to further assess the in vivo potential of 6BT and Securinine, mouse xenograft experiments were performed. In the first model, the ability of 6BT and Securinine to inhibit established HL-60 subcutaneous leukemic tumor growth in nude mice was assessed. […] In the second model system, the ability of 6BT to prevent either HL-60 or MV-411 tumor formation in nude mice was assessed.
This Example assed the effects of securinine and its analogues in mice. […] HL-60 cell is an AML cell line commonly used for in-vitro studies and typically they are classified as M2 subtype. […] Therefore this was the highest dose that could be safely utilized.
Next we repeated the mouse xenograft experiments using i.p. drug administration (20 mg/kg), but with twice a day dosing again using HL-60 cell tumors.
Securinine (20 mg/kg) or vehicle ([…]) was injected i.p. into mice starting 10 days after HL-60 cell inoculation bilaterally into the flanks of nude mice (5 mice per group).

Test [2] concerns HL-60 cells. As to the kind of experiment: Flow cytometry of CD11b and CD14 cell surface markers. Type of test: cell-based, human. The following applies: 4 days. On the procedure:
HL-60 cells were treated with the indicated compounds for 4 days, the cells were stained with CD11b-PE and CD14-FITC, and flow cytometric analysis was performed.

Test [3] has as its system HL-60 cells. As to the kind of experiment: NBT reduction assay of differentiation in HL-60 cells. Particulars: for NBT reduction, ATRA alone (%) / NBT reduction, Decitabine alone (%): 4 days; for NBT (%): 10 days. Type of test: cell-based, human. An excerpt:
The NBT screen works due to changes in the oxidoreductases during differentiation that lead to increases in rates of NBT reduction. NBT is reduced due to the production of superoxide that is catalyzed by an NADPH oxidase. […] A quantitative NBT reduction assay is ideal for this type of screen as it is simple, sensitive, quantitative, requires minimal cells, has been proven to have low well to well variability, and the amount of reduced NBT is proportional to the number of cells reducing the dye as well as the amount reduced by each cell.
[…] […] Differentiation is determined in the 96 well plates by incubating the cells with 1 mg/ml of NBT and 200 ng/ml of PMA as the stimulant for the respiratory burst for 35 minutes at 37° C. The reaction can then be stopped with HCL and the formazan will be solubilized with DMSO. Finally, the reaction mixture will be read spectrophotometricaly at 560 nm in a plate reader.
[…] […] Differentiation is determined in the 96 well plates by incubating the cells with 1 mg/ml of NBT and 200 ng/ml of PMA as the stimulant for the respiratory burst for 35 minutes at 37° C. The reaction will then be stopped with HCL and the formazan will be solubilized with DMSO. Finally, the reaction mixture will be read spectrophotometricaly at 560 nm in a plate reader.
The assays are done using the colorimetric process. The NBT reduction assay measures the respiratory burst and is done by stimulating the respiratory burst in cells with PMA and then looking for a color change in the NBT dye.

The next test relates to GABA A receptor. Particulars: compared with securinine; cited from earlier work.
Test [4] deals with HL-60 cells. As to the kind of experiment: Cell cycle, propidium iodide flow cytometry. In kind it is cell-based, human. The following applies: 4 days.
Protocol: HL-60 cells were treated with the indicated compounds for 4 days and the cells were stained with propidium iodide and analyzed by flow cytometry.
The test system of test [5] is HL-60 cells. As to the kind of experiment: Morphology, cytospin with Wright-Giemsa stain. In kind it is cell-based, human. The following applies: 4 days.
Protocol: HL-60 cells were treated with the indicated compounds for 4 days. Cytospin preparations were prepared and the cells were stained with Wright-Giemsa stain.

In the case of `CC1=C(/C=C/C(C)=C/C=C/C(C)=C/C(=O)O)C(C)(C)CCC1` [ATRA, all-trans-retinoic acid, reference compound], the “tumor growth compared to vehicle treated mice” value in test [1] is given as “did not show any difference in tumor growth”. Moreover, in the test with HL-60 cells [2] (1 μM), the CD11b positive is recorded as 77%. Moreover, in the test on HL-60 cells [2] (1 μM), the CD14 positive is recorded as 8%. Further, the “NBT reduction, ATRA alone (%)” value is on record as 7% in the test with HL-60 cells [3] (ATRA 3 nM); 9% with HL-60 cells [3] (ATRA 9 nM); 16% in the test with HL-60 cells [3] (ATRA 26 nM); 37% in the test with HL-60 cells [3] (ATRA 80 nM); 59% in the test on HL-60 cells [3] (ATRA 250 nM). Also, the “cells differentiated, NBT reduction assay” value with HL-60 cells [3] (HL-60 cells, 4 days (FIG. 3)) was roughly 95%.

Consider `O=C1C=C2C=C[C@@H]3C[C@@]2(O1)[C@@H]1CCCCN31` [Allosecurinine, allosecurinine], for which, in the test on GABA A receptor, the “GABA A receptor affinity” value is “decreased GABA A receptor affinity”. Moreover, the “NBT (%)” value in the test on HL-60 cells [3] (0.06 μM) was found to be 20%; in the test on HL-60 cells [3] (1.25 μM) it was 25%; in the test on HL-60 cells [3] (2.5 μM), 40%; in the test with HL-60 cells [3] (5 μM), 50%; with HL-60 cells [3] (10 μM) it was 80%.

For `Cc1cc(O)nc2cc3oc4ccccc4c3cc12` [Compound 375, 4-methyl[1]benzofuro[3,2-g]quinolin-2-ol], the “cell cycle phase in which cells accumulate” value in the test on HL-60 cells [4] was “accumulation in G2/M”. In addition, the morphologic changes result in the test on HL-60 cells [5] is “reproducible, but less pronounced changes”. In the test on HL-60 cells [2] (10 μM), this molecule showed a CD11b positive of 64% and a CD14 positive of 19%.

Regarding `Nc1ncn([C@H]2C[C@H](O)[C@@H](CO)O2)c(=O)n1` [Decitabine, reference compound], the “NBT reduction, Decitabine alone (%)” value in the test on HL-60 cells [3] (Decitabine 10 ng/ml) came to 14%; in the test with HL-60 cells [3] (Decitabine 50 ng/ml), 23%; in the test on HL-60 cells [3] (Decitabine 100 ng/ml) it was 26%.

With `O=C1C=C2C=C[C@H]3C[C@]2(O1)[C@@H]1CCCCN13` [Virosecurinine, virosecurinine], the “GABA A receptor affinity” value in the test with GABA A receptor is reported as “decreased GABA A receptor affinity”. The “NBT (%)” value with HL-60 cells [3] (0.06 μM) was determined as 20%; in the test with HL-60 cells [3] (1.25 μM) it was 30%; in the test on HL-60 cells [3] (2.5 μM), 50%; with HL-60 cells [3] (5 μM), 99%; in the test on HL-60 cells [3] (10 μM) it was 95%.

As to `C=C1/C(=C\C=C2/CCC[C@]3(C)[C@@H]([C@H](C)CCCC(C)(C)O)CC[C@@H]23)C[C@@H](O)C[C@@H]1O` [Vitamin D, 1,25-dihydroxyvitamin D3, reference compound], in the test with HL-60 cells [2] (100 nM), the CD11b positive worked out at 90% and the CD14 positive was found to be 65%.
